Molecular target: T1, Tyrosinase (Homo sapiens) (UniProt P14679)
T1 sequence (whole entry): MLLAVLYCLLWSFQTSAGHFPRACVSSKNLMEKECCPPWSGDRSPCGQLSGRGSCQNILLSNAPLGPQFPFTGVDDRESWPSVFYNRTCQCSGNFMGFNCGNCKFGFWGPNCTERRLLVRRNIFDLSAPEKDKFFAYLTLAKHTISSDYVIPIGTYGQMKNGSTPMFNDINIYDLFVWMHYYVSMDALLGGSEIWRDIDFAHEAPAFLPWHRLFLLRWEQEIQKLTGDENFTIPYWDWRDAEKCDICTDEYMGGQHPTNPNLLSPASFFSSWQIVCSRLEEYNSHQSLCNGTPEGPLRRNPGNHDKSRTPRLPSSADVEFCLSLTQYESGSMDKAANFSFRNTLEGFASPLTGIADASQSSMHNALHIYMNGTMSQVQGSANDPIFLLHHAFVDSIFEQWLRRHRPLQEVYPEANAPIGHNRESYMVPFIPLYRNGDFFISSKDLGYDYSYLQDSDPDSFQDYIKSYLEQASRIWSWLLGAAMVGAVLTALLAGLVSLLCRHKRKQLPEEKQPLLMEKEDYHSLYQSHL
Assay: Inhibition of tyrosinase-mediated formation of melanin from tyrosine at 100 uM relative to control

CC[C@H](C)[C@@H]1NC(=O)[C@H](Cc2ccc(O)cc2)N(C)C(=O)[C@H]([C@H](C)O)N2C(=O)[C@H](CC[C@H]2O)NC(=O)[C@H](CC(C)C)NC(=O)[C@@H](NC(=O)[C@H](CCC(N)=O)NC(=O)[C@H](CCc2ccc(O)cc2)NC(=O)[C@H](O)CO)[C@@H](C)OC1=O
inhibition: 55%

— ChEMBL document CHEMBL1151674, “Oscillapeptin G, a tyrosinase inhibitor from toxic Oscillatoria agardhii” (J Nat Prod, 1996)
